In US9370522B2, “Heterocyclic compounds for the inhibition of PASK” (BioEnergenix, LLC, priority 2009, dated 2016):

What was measured:
[1] = target: T1, hPASK (Full Length) (Homo sapiens, UniProt Q96RG2); experiment: Biochemical Assay for hPASK Activity (Kinase-Glo Luminescent Kinase Assay), full length; settings: purified hPASK from insect cells, MBP substrate
T1 construct: made in house; host or cells: insect cells
Experimental: (§1) The assay for purified hPASK activity utilizes the Kinase-Glo Luminescent Kinase Assay (Promega), which quantifies the amount of ATP remaining in solution following kinase reaction. The assay is carried out in a 96-well plate format and is performed by adding a volume of Kinase-Glo Reagent (Promega, catalog #V3771) equal to the volume of solution in the well of a completed kinase reaction. Kinase-Glo reagent contains Luciferase and its substrate. After addition to a kinase reaction it allows to measure luminescence. The amount of ATP left in solution at the time of Kinase-Glo Plus addition is directly proportional to the luminescence that is measured in each well, and inversely correlated with kinase activity.
(§2) Purified hPASK from insect cells (0.02 μg) is added to a 50 μL reaction mix containing 40 mM Hepes (pH 7.0), 100 mM KCl, 5 mM MgCl2, 1 mM DTT and 1 ug of MBP protein. Inhibitory compounds are then added and the mixture is incubated for 10 min at 25° C. before adding 5 μL of ATP (at desired concentration). The reaction is allowed to proceed at 25° C. for 1 hour before adding 50 μL of Kinase-Glo reagent. The luminescence is measured as soon as 10 minutes after Kinase-Glo reagent is added.

[2] = target: T2, hPASK Kinase Domain (Homo sapiens, UniProt Q96RG2); experiment: Biochemical Assay for hPASK Activity (Kinase-Glo Luminescent Kinase Assay), kinase domain
T2 construct: made in house; host or cells: insect cells
Experimental: as §1, §2

[3] = target: T3, PASK (UniProt #Q96RG2; human recombinant N-terminal GST tagged construct, residues 879-1323) (Homo sapiens, UniProt Q96RG2); experiment: 33P-ATP radiometric PASK kinase assay (P81 phosphocellulose, scintillation counting); type: biochemical; settings: Table 2, Myelin Basic Protein 20 μM, 120 min room temperature, average of all trials, read-out: IC50 Kinase Domain
T3 construct: N-terminal GST tagged construct, residues 879-1323; GST (N); made in house; host or cells: insect cells
Experimental: Purified PASK (UniProt #Q96RG2; human recombinant N-terminal GST tagged construct, residues 879-1323) from insect cells (final concentration 5 nM) is added to freshly prepared Base Reaction Buffer containing 20 mM Hepes (pH 7.5), 10 mM MgCl2, 1 mM EGTA, 0.02% Brij35, 0.02 mg/ml BSA, 0.1 mM Na3VO4, 2 mM DTT, 1% DMSO and Myelin Basic Protein (20 μM final). Test compounds in DMSO are then added and the mixture, followed by delivery of ^33P-ATP (specific activity 0.01 μCi/μl final) to initiate the reaction. The kinase reaction is incubated for 120 min at room temperature. The entire reaction mixture is washed through onto a P81 Phosphocellulose paper and washed three times for 10 minutes in 75 mM phosphoric acid and once in methanol prior to drying and scintillation counting. When the assay was repeated for a given compound, the activity data is based on the average of all trials.

[4] = target: T4, PASK (Invitrogen) Kinase Domain (Homo sapiens, UniProt Q96RG2); experiment: PASK TR-FRET assay (Ulight-peptide, Eu chelate antibody); type: biochemical; settings: TR-FRET 665 nm/615 nm, 2 hours at 25° C.
T4 construct: IC50 Kinase Domain; purchased Invitrogen
Excerpt: The aim of the FRET assay is to determine the inhibition potential of test compounds on targeted kinase. This assay platform provides a homogenous screening method for measuring kinase activity by quantitating the amount of phospho-substrate in solution following a kinase reaction.
In the presence of kinase and ATP, the Ulight-peptide is phosphorylated and captured by an anti-phospho-substrate antibody, which brings the Eu chelate donor and Ulight acceptor dyes into close proximity. Upon excitation at 340 nm, the Eu chelate transfers its energy to the Ulight dye, resulting in a fluorescent light emission at 665 nm.
Titration of Kinase at 1 mM ATP was achieved via the following protocol. After making serial three-fold dilutions of PASK (Invitrogen) in reaction buffer across the plate; 5 μl of kinase dilution and 5 μl substrate/ATP mix were added to the wells of the white Optiplate-384 (PerkinElmer). The contents of the plate were and incubated at RT for 1 h. The reaction was stopped by adding 5 μl of stop solution to each test well followed by mixing and incubation at RT for 10 minutes. 5 μl of detection mix (detection antibody diluted in detection buffer) was added; the contents of the plate were mixed and then incubated in the dark for 1 hour at RT. The signal was recorded at TR-FRET mode (665 nm/615 nm). The results were graphed to calculate the EC50.
Titration of ATP at the EC50 Concentration of Kinase to determine ATP Km,app. was performed using the following method. After making serial dilutions of ATP (Invitrogen), 5 μl of ATP dilution and 5 μl substrate/kinase mix were added to the wells of the white Optiplate-384 (PerkinElmer). The contents of the plate were and incubated at RT for 1 h. The reaction was stopped by adding 5 μl of stop solution to each test well followed by mixing and incubation at RT for 10 minutes. 5 μl of detection mix (detection antibody diluted in detection buffer) was added; the contents of the plate were mixed and then incubated in the dark for 1 hour at RT. The signal was recorded at TR-FRET mode (665 nm/615 nm). The results were graphed to calculate the EC50 as the ATP Km,app.
Compound screening was done via the following method. 10 mM stock solution of test compound in DMSO was prepared by dissolving test compound in DMSO at RT for 1 hour, and then sonicating at 100% output for 8 minutes. If compound is not soluble under this condition, it was diluted to 3 mM. Kinase reaction buffer was prepared containing 10 mM MgCl2, 50 mM HEPES, 1 mM EGTA, 0.01% TWEEN-20, 2 mM DTT. […] The signal was recorded at TR-FRET mode (665 nm/615 nm).

[5] = Table 1, second part (Examples 33-59)

T1 sequence (Q96RG2 whole entry): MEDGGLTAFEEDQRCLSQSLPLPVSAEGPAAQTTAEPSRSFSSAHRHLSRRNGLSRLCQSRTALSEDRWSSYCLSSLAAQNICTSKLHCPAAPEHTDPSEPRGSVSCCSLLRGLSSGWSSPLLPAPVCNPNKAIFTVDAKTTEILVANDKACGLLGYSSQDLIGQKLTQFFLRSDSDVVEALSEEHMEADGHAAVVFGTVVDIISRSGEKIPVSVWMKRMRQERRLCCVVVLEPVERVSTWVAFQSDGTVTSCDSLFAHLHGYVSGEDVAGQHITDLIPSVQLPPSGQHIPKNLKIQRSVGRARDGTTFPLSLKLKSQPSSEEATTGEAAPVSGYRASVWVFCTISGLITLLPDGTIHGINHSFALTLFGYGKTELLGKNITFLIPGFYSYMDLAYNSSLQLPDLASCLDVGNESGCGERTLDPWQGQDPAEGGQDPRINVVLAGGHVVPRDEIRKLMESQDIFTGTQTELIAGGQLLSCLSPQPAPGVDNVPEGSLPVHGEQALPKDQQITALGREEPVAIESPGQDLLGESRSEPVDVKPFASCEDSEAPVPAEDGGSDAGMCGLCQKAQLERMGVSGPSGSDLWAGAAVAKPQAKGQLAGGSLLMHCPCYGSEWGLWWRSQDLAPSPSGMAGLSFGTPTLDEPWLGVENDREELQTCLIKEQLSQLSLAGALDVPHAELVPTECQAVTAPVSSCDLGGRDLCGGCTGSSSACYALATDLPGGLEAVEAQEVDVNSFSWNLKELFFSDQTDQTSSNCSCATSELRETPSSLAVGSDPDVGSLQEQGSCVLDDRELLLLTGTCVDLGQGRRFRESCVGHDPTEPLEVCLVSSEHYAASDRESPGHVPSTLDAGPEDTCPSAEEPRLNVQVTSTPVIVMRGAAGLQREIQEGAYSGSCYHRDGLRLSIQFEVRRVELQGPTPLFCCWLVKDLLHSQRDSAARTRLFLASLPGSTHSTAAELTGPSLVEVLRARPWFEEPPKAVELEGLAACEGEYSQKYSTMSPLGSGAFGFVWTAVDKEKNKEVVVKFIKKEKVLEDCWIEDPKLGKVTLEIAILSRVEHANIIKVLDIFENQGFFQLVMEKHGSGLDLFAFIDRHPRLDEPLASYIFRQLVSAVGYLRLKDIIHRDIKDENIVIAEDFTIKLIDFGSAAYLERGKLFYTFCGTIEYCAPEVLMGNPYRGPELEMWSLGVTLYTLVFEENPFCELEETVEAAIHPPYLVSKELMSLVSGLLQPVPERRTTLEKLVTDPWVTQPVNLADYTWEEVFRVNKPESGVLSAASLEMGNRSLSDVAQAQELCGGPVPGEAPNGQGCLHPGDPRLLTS
T4 sequence (Q96RG2 999-1251 limits assumed): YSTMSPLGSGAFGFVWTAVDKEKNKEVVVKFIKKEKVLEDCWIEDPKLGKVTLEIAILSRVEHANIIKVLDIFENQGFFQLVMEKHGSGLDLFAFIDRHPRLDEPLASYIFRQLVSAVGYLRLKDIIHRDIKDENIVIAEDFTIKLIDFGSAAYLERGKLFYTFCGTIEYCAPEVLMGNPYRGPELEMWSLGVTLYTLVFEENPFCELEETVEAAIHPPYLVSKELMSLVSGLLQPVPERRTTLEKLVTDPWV
T2 sequence (Q96RG2 999-1251 limits assumed): as above
T3 sequence (Q96RG2 879-1323, stated change not applied): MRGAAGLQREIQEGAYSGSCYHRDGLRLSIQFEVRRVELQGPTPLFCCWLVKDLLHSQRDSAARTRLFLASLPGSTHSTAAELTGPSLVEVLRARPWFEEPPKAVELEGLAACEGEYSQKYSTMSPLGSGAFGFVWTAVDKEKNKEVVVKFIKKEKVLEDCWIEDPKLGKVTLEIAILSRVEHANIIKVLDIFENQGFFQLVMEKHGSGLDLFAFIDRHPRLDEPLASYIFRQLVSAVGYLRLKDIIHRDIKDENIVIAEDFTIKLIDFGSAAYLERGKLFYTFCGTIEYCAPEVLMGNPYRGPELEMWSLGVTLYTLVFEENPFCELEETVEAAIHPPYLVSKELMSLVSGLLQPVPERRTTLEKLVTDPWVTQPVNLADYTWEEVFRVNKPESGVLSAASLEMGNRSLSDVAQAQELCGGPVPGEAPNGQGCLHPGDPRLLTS

`O=C(O)c1ccc2nc(-c3cccc(O)c3)c(-c3cccc(O)c3)nc2c1` [Example 1, 2,3-Di-(3-hydroxyphenyl)quinoxaline-6-carboxylic acid] was tested, and the IC50 [1] was ≤ 10 µM and the IC50 ([2]; Table 1, first part) was ≤ 10 µM.
With `O=C(O)c1ccc2nc(-c3ccccc3O)c(-c3ccccc3O)nc2c1` [Example 2, 2,3-Di-(2-hydroxyphenyl)quinoxaline-6-carboxylic acid] the IC50 [1] was ≤ 10 µM and the IC50 ([2]; Table 1, first part) was ≤ 10 µM.
For `Cc1nc2cc(C(=O)O)c(O)cc2nc1-c1ccccc1` [Example 3, 7-Hydroxy-2-phenyl-3-methylquinoxaline-6-carboxylic acid], the IC50 [1] was ≥ 10 µM and the IC50 ([2]; Table 1, first part) was ≥ 10 µM.
With `COc1ccc(-c2nc3ccc(C(=O)O)cc3nc2-c2ccc(OC)c(OC)c2)cc1OC` [Example 4, 2,3-Di-(3,4-dimethoxyphenyl)quinoxaline-6-carboxylic acid] the IC50 [1] was ≥ 10 µM and the IC50 ([2]; Table 1, first part) was ≥ 10 µM.
With `O=C(O)c1ccc2nc(-c3ccc(F)cc3)c(-c3ccc(F)cc3)nc2c1` [Example 5, 2,3-Di-(4-fluorophenyl)quinoxaline-6-carboxylic acid] the IC50 [1] was ≤ 10 µM and the IC50 ([2]; Table 1, first part) was ≥ 10 µM.
In the case of `Cc1ccc(-c2nc3ccc(C(=O)O)cc3nc2-c2ccc(C)cc2)cc1` [Example 7, 2,3-Di-(4-methylphenyl)quinoxaline-6-carboxylic acid], the IC50 [1] is reported as ≤ 10 µM and the IC50 ([2]; Table 1, first part) is reported as ≥ 10 µM.
With `O=C(O)c1ccc2nc(-c3ccccc3)c(-c3ccccc3)nc2c1` [Example 8, 2,3-Diphenylquinoxaline-6-carboxylic acid] the IC50 [1] was ≤ 10 µM and the IC50 ([2]; Table 1, first part) was ≤ 10 µM.
In the case of `O=C(O)c1ccc2nc(-c3ccco3)c(-c3ccco3)nc2c1` [Example 9, 2,3-Di-(2-furyl)quinoxaline-6-carboxylic acid], the IC50 [1] is reported as ≤ 10 µM and the IC50 ([2]; Table 1, first part) is reported as ≤ 10 µM.
`O=C(O)c1cc2nc(-c3ccc4c(c3)OCO4)c(-c3ccc4c(c3)OCO4)nc2cc1O` [Example 10, 2,3-Di-(3,4-methylenedioxyphenyl)quinoxaline-7-hydroxy-6-carboxylic acid] was tested, and the IC50 [1] was ≤ 10 µM and the IC50 ([2]; Table 1, first part) was ≤ 10 µM.
For `CCOc1ccc(-c2nc3ccc(C(=O)O)cc3nc2-c2ccc(OCC)cc2)cc1` [Example 11, 2,3-Di-(4-ethoxyphenyl)quinoxaline-6-carboxylic acid], the IC50 [1] was ≥ 10 µM and the IC50 ([2]; Table 1, first part) was ≥ 10 µM.
In the case of `CC(C)(C)c1ccc(-c2nc3cc(C(=O)O)ccc3nc2-c2ccccc2)cc1` [Example 33, 3-(4-tert-Butylphenyl)-2-phenylquinoxaline-6-carboxylic acid], the IC50 [2, 5] is reported as ≤ 10 µM, the IC50 [3] is reported as ≤ 10 µM and the IC50 [4] is reported as ≤ 10 µM.
With `O=C(O)c1cccc(-c2nc3cc(C(=O)O)ccc3nc2-c2ccccc2)c1` [Example 50, 3-(3-Carboxyphenyl)-2-phenylquinoxaline-6-carboxylic acid] the IC50 [2, 5] was ≤ 10 µM.
In the case of `CN(c1ccc(-c2nc3cc(C(=O)O)ccc3nc2-c2ccccc2)cc1)S(C)(=O)=O` [Example 51, 3-(4-(N-Methylmethylsulfonamido)phenyl)-2-phenylquinoxaline-6-carboxylic acid], the IC50 [2, 5] is reported as ≤ 10 µM.
With `CC(C)S(=O)(=O)Nc1ccc(-c2nc3cc(C(=O)O)ccc3nc2-c2ccccc2)cc1` [Example 52, 3-(4-(Isopropylsulfonamido)phenyl)-2-phenylquinoxaline-6-carboxylic acid] the IC50 [2, 5] was ≤ 10 µM and the IC50 [4] was ≤ 10 µM.
`COc1ccc(-c2nc3ccc(S(N)(=O)=O)cc3nc2-c2ccc(OC)cc2)cc1` [Example 53, 2,3-Bis(4-methoxyphenyl)quinoxaline-6-sulfonamide] was tested, and the IC50 [2, 5] was ≤ 10 µM.
For `CNS(=O)(=O)c1ccc2nc(-c3ccc(OC)cc3)c(-c3ccc(OC)cc3)nc2c1` [Example 54, 2,3-Bis(4-methoxyphenyl)-N-methylquinoxaline-6-sulfonamide], the IC50 [2, 5] was ≥ 10 µM.
With `COc1ccc(-c2nc3ccc(S(=O)(=O)N4CCOCC4)cc3nc2-c2ccc(OC)cc2)cc1` [Example 55, 2,3-Bis(4-methoxyphenyl)-6-(morpholinosulfonyl)quinoxaline] the IC50 [2, 5] was ≤ 10 µM.
In the case of `COc1ccc(-c2nc3ccc(/C=C/C(=O)O)cc3nc2-c2ccc(OC)cc2)cc1` [Example 56, (E)-3-(2,3-bis(4-methoxyphenyl)quinoxalin-6-yl)acrylic acid], the IC50 [2, 5] is reported as ≥ 10 µM.
For `COc1ccc(-c2nc3cccc(C(=O)O)c3nc2-c2ccc(OC)cc2)cc1` [Example 58, 2,3-Bis(4-methoxyphenyl)quinoxaline-5-carboxylic acid], the IC50 [2, 5] was ≤ 10 µM.
In the case of `CCc1ccc(-c2nc3ccc(C(=O)NOC)cc3nc2-c2ccc(CC)cc2)cc1` [Example 59, 2,3-Bis(4-ethylphenyl)-N-methoxyquinoxaline-6-carboxamide], the IC50 [2, 5] is reported as ≤ 10 µM.
With `COc1ccc(-c2nc3cc(C(=O)O)ccc3cc2-c2ccccc2)cc1` [Example 60, 2-(4-Methoxyphenyl)-3-phenylquinoline-7-carboxylic acid] the IC50 [4] was ≤ 10 µM.
In the case of `COc1ccc(-c2cc3cc(C(=O)O)ccc3nc2-c2ccc(OC)cc2)cc1` [Example 61, 2,3-Bis(4-methoxyphenyl)quinoline-6-carboxylic acid], the IC50 [4] is reported as ≤ 10 µM.
